Earlier results, collected in US11504319B2, “Process of coloring keratinous material comprising the use of an organosilicon compound, an effect pigment, a further coloring compound and a film-forming polymer III” (Henkel AG & Co. KGaA, priority 2019, dated 2022).

Settings: 25° C.

solubility in water (in words) | Structure (SMILES) | solubility in water
highly soluble | O=C([O-])C1=NN(c2ccc(S(=O)(=O)[O-])cc2)C(=O)C1N=Nc1ccc(S(=O)(=O)[O-])cc1.[Na+].[Na+].[Na+] (stereo not shown) [Acid Yellow 23, trisodium salt of 4,5-dihydro-5-oxo-1-(4-sulfophenyl)-4-((4-sulfophenyl)azo)-1H-pyrazole-3-carboxylic acid] | –
– | O=C([O-])c1c(Cl)c(Cl)c(Cl)c(Cl)c1-c1c2c(Br)cc(=O)c(Br)c-2oc2c(Br)c(O)cc(Br)c12.O=C([O-])c1c(Cl)c(Cl)c(Cl)c(Cl)c1-c1c2c(Br)cc(=O)c(Br)c-2oc2c(Br)c(O)cc(Br)c12.[Na+].[Na+] [Acid Red 92, disodium salt of 3,4,5,6-tetrachloro-2-(1,4,5,8-tetrabromo-6-hydroxy-3-oxoxanthen-9-yl)benzoic acid] | greater than 10 g/L
– | Nc1cc(S(=O)(=O)[O-])cc2cc(S(=O)(=O)[O-])c(N=Nc3ccccc3)c(O)c12.[Na+].[Na+] [Acid Red 33, disodium salt of 5-amino-4-hydroxy-3-(phenylazo)-naphthalene-2,7-disulphonate] | 2.5 g/L
– | O=S(=O)([O-])c1ccc(N=Nc2c(O)ccc3ccccc23)cc1.[Na+] [Acid Orange 7, sodium salt of 4-[(2-hydroxy-1-naphthyl)azo]benzene sulphonate] | more than 7 g/L
